Assay results reported in patent US11156623B2, “Methods of monitoring safety of quercetin compositions” (PUBLIC JOINT STOCK COMPANY “SCIENTIFIC INDUSTRIAL CENTRE …, priority 2018, dated 2021).
≈ marks a conversion by molar mass, not a printed value. Read-outs that look alike come from different tables or passages of the source.

Tests used:
[1] = cited from earlier work
[2] = test system: Daphnia magna; conditions: cited from earlier work; for EC50 at 48 h: Daphnia magna mobility
[3] = test system: Pseudokirchneriella subcapitata; conditions: cited from earlier work
[4] = test system: MDA-MB231 human breast cancer cells; assay: Cell viability assay (CellTiter 96 AQueous One) in MDA-MB231; format: cell-based; conditions: MDA-MB-231, MDA-MB231, 72 h
Description: Toxicity of DB-DBA (2-(3,4-dihydroxybenzoyloxy)-4,6-dihydroxybenzoic acid) was assessed in 96-well plate (Thermo Fisher, Walthman, Mass.) on 1×10^3 MDA-MB231 human breast cancer cells/well. DB-DBA was diluted in to concentrations from 500 to 0 ug/ml. The plate was incubated at 37° C. for 72 h. Cell viability was measured in a CellTiter 96® AQueous One Solution Cell Proliferation Assay (Promega, Madison, Wis.), according to the manufacturer's protocol. The absorbance at 490 nm is determined spectrophotometrically and IC50 was calculated to be 75 microgram/ml.

[5] = test system: mice; conditions: cited from earlier work
[6] = test system: LNCaP human cell line; conditions: 48 h, read-out: EC50, loss of viability; cited from earlier work
[7] = test system: HeLa, MCF7, HepG2, A549, LNCaP human cell lines; conditions: cited from earlier work
[8] = test system: OVCAR3 human cell line; conditions: OVCAR3, 48 h; read-out: EC50, loss of viability; cited from earlier work
[9] = Storage stability: degradation products by liquid chromatography with UV detection; format: physicochemical
Description: (§1) Methods to detect PCA are known in the art, such as by liquid chromatography with UV detection. For example, a solution containing PCA is subjected to liquid chromatography using gradient elution with the following conditions: stainless steel column with stationary phase end-capped octadecylsilyl silica for chromatography R; size (150×3.9) mm, particle size 5 micron. Mobile phase A: 0.1% phosphoric acid v/v; mobile phase B—methanol; column temperature: 25° C.; flow rate: 1 mL/min.; UV detection at 254 nm. Relative retention time is 1.00 for quercetin, and 0.34 for PCA (FIG. 2). Content of PCA relative to quercetin can be calculated by formula (in percentage): […]
as §1, with “detect 2,4,6-THBA” for “detect PCA”, “containing 2,4,6-THBR” for “containing PCA”, “for 2,4,6-trihydroxybenzoic acid” for “for PCA”, “of 2,4,6-trihydroxybenzoic acid” for “of PCA”
Methods to detect DB-DBA are known in the art, such as by liquid chromatography with UV detection. For example, a solution containing DB-DBA is subjected to liquid chromatography using gradient elution with the following conditions: stainless steel column with stationary phase end-capped octadecylsilyl silica for chromatography R; size (150×3.9) mm, particle size 5 microns. Mobile phase A: 0.1% phosphoric acid v/v; mobile phase B—methanol; column temperature: 25° C.; flow rate: 1 mL/min.; UV detection at 254 nm. Relative retention time is 1.00 for quercetin, and 0.77 for DB-DBA (FIG. 15). Content of DB-DBA relative to quercetin can be calculated by formula (in percentage):
For test solution content of one vial with 70 ml of 96% ethanol was transferred to a 100 ml volumetric flask, diluted to 100 ml with the same solvent and mixed. For reference solution a, 1.0 ml of test solution was placed in a 100 ml volumetric flask, diluted to 100 ml with 96% ethanol and mixed. For reference solution b, 10.0 mg working standard of quercetin for system suitability (containing isorhamnetin and kaempferol, PJSC SIC “Borshchahivskiy CPP”, Kiev, Ukraine) was dissolved in 30 ml of 96% ethanol, diluted to 50 ml with the same solvent and mixed. Chromatography was performed on a using a Dionex UltiMate 3000 HPLC system (Thermo Fisher Scientific, Inc., Waltham, Mass.) with DAD and MS detectors (3200 QTRAP System (AB Sciex LLC, Framingham, Mass.)) connected consecutively using gradient elution with the following conditions: • stainless steel column with stationary phase end-capped octadecylsilyl silica for chromatography; size (150×3.9) mm, particle size 5 microns • Mobile phase A: 1.0 mL of phosphoric acid diluted to 1000 mL with water for chromatography, mixed and degassed; • Mobile phase B: methanol gradient grade; • Column temperature: 25° C. • Flow rate: 1 mL/min.; • Detection at 254 nm; • injection volume: 10 microL.
Inject test solution and reference solution (a). Peaks of quercetin and kaempferol as references were determined by relative retention times of 1.00 and 1.11
Vials containing (group 1) a lyophilized quercetin (10%)/PVP (90%) composition in an air atmosphere and (group 2) vials containing a lyophilized quercetin (10%)/PVP (90%) composition in a nitrogen gas atmosphere were stored at room temperature. Samples were obtained for each group at the indicated time points (0, 3, 6, 9, 12, 18, 24, and 36 months) and assayed for content of protocatechuic acid by chromatography as described above. Data from 3 independent experiments are shown. […]

[10] = humans, cited from earlier work
[11] = test system: human lymphoblastoid cell line K562; conditions: cited from earlier work
[12] = test system: retinal pigmented epithelial cells (ARPE-19); conditions: ARPE-19 normal cell line; cited from earlier work
[13] = test system: human lymphoblastoid TK6 cells; conditions: cited from earlier work
[14] = human
Description: Potential human toxicity of 2,4,6-THBA can be related to its toxicity based on studies with Daphnia. Toxicity of various compounds in Daphnia (48 h immobilization test) correlated to toxicity in humans (determined as reference dose for human oral exposure, RfD) (Martins et al., 2007).

[15] = test system: Daphnia magna; assay: Daphnia magna mobility assay; conditions: 48 h
Description: Toxicity is determined using a Daphnia magna mobility assay as described (Kamaya et al., 2005). Neonates (<24 h old) from 2-3-week-old mothers are placed in a 50 ml glass beaker containing 40 ml of a test solution. A sample of solid form quercetin (10%)/PVP (90%) composition containing 2,4,6-trihydroxybenzoic acid is resuspended and introduced at increasing dilutions. All experiments for exposure and controls without chemicals are made in four replicates and performed at 21±0.3° C. under 16 h light:8 h dark photoperiod. Immobility is used as the endpoint for determining acute toxicity; the daphnids showing no movement within 15 s after gentle stirring are defined to be immobile. After 24 and 48 h, the number of immobile daphnids is recorded to determine the concentration able to achieve 50% immobilization and it is indicated as EC50.

[16] = test system: Pseudokirchneriella subcapitata
[17] = test system: HCT-116 human cells; conditions: cited from earlier work
[18] = test system: cyclin-dependent kinases CDK1, 2, 4, 6; conditions: purified CDKs in vitro; cited from earlier work
[19] = 36 months storage at 20-25° C., air

O=C(O)c1ccccc1 [benzoic acid]
RfD / toxicity in humans [1]: 1 mg/kg/day | EC50 at 48 h [2]: 860 µg/mL (≈ 7040 µM) | EC50, suppression of growth [3]: 36 µg/mL

O=C(Oc1cc(O)cc(O)c1C(=O)O)c1ccc(O)c(O)c1 [DB-DBA, 2-(3,4-dihydroxybenzoyloxy)-4,6-dihydroxybenzoic acid]
IC50 [4]: 75 µg/mL (≈ 245 µM)

O=C(O)c1ccc(O)c(O)c1 [PCA, 3,4-dihydroxybenzoic acid]
hepatotoxicity (increase in ALT) ([5]; acute, 50 mg/kg intraperitoneally): the same effect | hepatotoxicity (increase in ALT) ([5]; subchronic, 0.1% in drinking water for 60 days): causes hepatotoxicity | EC50 [6]: 5 µM | concentration causing apoptosis (DNA fragmentation, caspase 3 activation) [7]: 5 to 8 µM | EC50 [8]: 5 µM

O=c1c(O)c(-c2ccc(O)c(O)c2)oc2cc(O)cc(O)c12 [quercetin, 2-(3,4-dihydroxyphenyl)-3,5,7-trihydroxy-4H-chromen-4-one]
RfD / toxicity in humans [1]: more than 15 mg/kg/day | decrease of 2,4,6-THBA concentration by air substitution with nitrogen gas [9]: 7 fold | protocatechuic acid accumulation ([9]; 3 months storage at 20-25° C., air): about 0.1 % (w/w) protocatechuic acid/quercetin | 2,4,6-THBA accumulation ([9]; 6 months storage at 20-25° C., air): about 0.1 % (w/w) 2,4,6-trihydroxybenzoic acid/quercetin | protocatechuic acid formation ([9]; 12 months storage, ambient conditions): above 0.4 % of quercetin content | 2,4,6-THBA formation ([9]; 24 months storage, ambient conditions, air): 0.33 % of quercetin content | 2,4,6-THBA accumulation [9, 19]: about 0.5 % 2,4,6-trihydroxybenzoic acid/quercetin | protocatechuic acid accumulation [9, 19]: about 0.9 % protocatechuic acid/quercetin | 2,4,6-THBA concentration relative to LC50 in 48 h Daphnia immobilization test (lower) ([9]; Daphnia): more than 3 times | 2,4,6-THBA concentration relative to LC50 in 48 h Daphnia immobilization test (higher) ([9]; Daphnia, 24 months): about 2 times | 2,4,6-THBA concentration ([9]; air substituted with nitrogen gas): 0.5 mg/L | 2,4,6-THBA formation ([9]; air substituted with nitrogen gas (FIG. 19)): 0.05% | rate of 2,4,6-THBA accumulation ([9]; room temperature, air): ~0.15 % of quercetin (w/w) per 12 months | rate of DB-DBA accumulation ([9]; room temperature, air): ~1.25 % of quercetin (w/w) per 12 months | elimination half-life ([10]; after ingestion in foods or supplements): 1 to 2 h | bioavailability of quercetin [10]: 0-50%

O=C(O)c1cc(O)c(O)c(OC(=O)c2cc(O)c(O)c(O)c2)c1 [DGA, digallic acid]
concentrations causing DNA fragmentation [11]: 200-800 microgram/ml | IC50, cytotoxicity [12]: 47 microgram/mil | IC50 by MTT assay ([13]; Bhouri et al., 2012a): 8.5 microgram/ml | concentrations causing DNA fragmentation, caspase-3/8 activation and PARP cleavage ([13]; TK6): 2.5-10 microgram/ml

O=C(O)c1c(O)cc(O)cc1O [2,4,6-THBA, 2,4,6-trihydroxybenzoic acid]
RfD of 2,4,6-THBA relative to benzoic acid [14]: more than 50 times | RfD, estimated from Daphnia EC50 [14]: 0.02 mg/kg/day | toxicity of 2,4,6-THBA relative to quercetin [14]: 700 times | toxicity relative to benzoic acid [15]: about 500 times | LC50 in 48 h ([2]; Daphna magna immobilization test): 1.7 µg/mL (≈ 9.99 µM) | EC50 at 48 h [2]: 1.7 µg/mL (≈ 9.99 µM) | toxicity relative to benzoic acid and its other derivatives [16]: 70 times | cytotoxicity compared to other salicylic acid metabolites [17]: more cytotoxic | inhibitory effect on cyclin-dependent kinases CDK1, 2, 4, 6 [18]: strong inhibitory effect | EC50, suppression of growth [3]: 0.546 µg/mL
